Legend:
[1] = Tolerability in mice; assay type: in vivo; details: same strain as efficacy studies, 30 mg/kg QD PO, unpublished observations
Method: For acalabrutinib, the current clinically recommended oral dose in MCL is 100 mg twice daily (BID)[18],[19], which results in an exposure of 1111 h·ng/mL[18],[19]. There are no published data on the pharmacokinetics of acalabrutinib in mice. The compound was administered at 15 mg/kg BID in mouse xenograft tumor models, giving a total daily dose of 30 mg/kg.

[2] = design: method as in PMID 29241979; details: phase 2 MCL study; cited from earlier work
[3] = design: method as in PMID 20615965; details: mice, oral, 14.2 mg/kg; cited from earlier work
[4] = molecular target: T1, Txk (Homo sapiens, UniProt P42681); assay: Millipore Kinase Profiler screening panel, Txk; assay type: biochemical
T1 construct: purchased EMD Millipore
T1 sequence (P42681 whole entry): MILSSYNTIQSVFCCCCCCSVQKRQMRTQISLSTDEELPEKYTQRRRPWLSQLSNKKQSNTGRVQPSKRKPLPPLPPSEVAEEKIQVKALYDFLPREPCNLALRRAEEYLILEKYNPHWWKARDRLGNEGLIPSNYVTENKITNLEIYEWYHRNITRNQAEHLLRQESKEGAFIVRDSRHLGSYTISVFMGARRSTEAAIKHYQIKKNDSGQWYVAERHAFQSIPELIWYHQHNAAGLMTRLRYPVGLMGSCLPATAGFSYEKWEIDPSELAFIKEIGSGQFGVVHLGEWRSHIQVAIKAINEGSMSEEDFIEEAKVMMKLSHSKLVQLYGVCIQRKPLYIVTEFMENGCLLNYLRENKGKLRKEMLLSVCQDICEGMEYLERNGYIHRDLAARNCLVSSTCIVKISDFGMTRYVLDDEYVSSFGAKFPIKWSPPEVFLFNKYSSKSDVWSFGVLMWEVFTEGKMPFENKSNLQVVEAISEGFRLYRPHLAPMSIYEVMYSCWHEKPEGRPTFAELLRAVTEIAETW
Method: (§1) The Kinase Profiler™ screening panel (EMD Millipore, Burlington, MA, USA) was used to test the inhibitory activity of TL-895 against 270 protein kinases. Kinases were incubated with TL-895 (1 µM) for 20 min to 4 h at room temperature, according to standard kinome screen procedures. […]

[5] = molecular target: T2, BTK (Homo sapiens, UniProt Q06187); assay: Off-Chip mobility shift kinase assay (potency); assay type: biochemical; design: Purified full-length recombinant BTK (Carna Biosciences #08–080); purchased Carna Biosciences 08–080; details: 75 µM ATP, 90 min, n = 9
T2 sequence (Q06187 whole entry): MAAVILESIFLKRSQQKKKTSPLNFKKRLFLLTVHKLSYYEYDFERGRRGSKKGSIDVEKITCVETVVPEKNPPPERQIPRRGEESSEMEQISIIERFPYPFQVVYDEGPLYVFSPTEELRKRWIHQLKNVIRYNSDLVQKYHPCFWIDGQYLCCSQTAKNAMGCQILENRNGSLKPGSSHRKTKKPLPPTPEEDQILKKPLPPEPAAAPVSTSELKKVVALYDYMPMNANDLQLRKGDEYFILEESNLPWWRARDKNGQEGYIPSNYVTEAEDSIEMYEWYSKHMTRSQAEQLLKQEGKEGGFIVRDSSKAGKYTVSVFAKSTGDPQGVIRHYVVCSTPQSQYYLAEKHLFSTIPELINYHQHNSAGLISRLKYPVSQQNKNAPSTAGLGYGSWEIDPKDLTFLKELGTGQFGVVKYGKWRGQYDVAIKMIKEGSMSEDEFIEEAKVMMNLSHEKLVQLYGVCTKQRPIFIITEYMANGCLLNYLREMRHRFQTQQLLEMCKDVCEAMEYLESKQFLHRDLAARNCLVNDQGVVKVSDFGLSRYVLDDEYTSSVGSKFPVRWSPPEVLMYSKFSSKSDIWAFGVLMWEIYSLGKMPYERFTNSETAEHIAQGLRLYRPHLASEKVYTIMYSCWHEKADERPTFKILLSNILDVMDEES
Method: Purified full-length recombinant BTK (Carna Biosciences #08–080) was diluted in buffer (see Supplementary Material) to a final concentration of 0.05 ng/µL with 75 µM ATP and 1 µM of the peptide FITC-AHA-[…]-NH2 (Tufts Core Facility, Boston, MA, USA) into microtiter plates. TL-895 (0.038–10,000 nM) was added and the samples were incubated at room temperature for 90 min (min) before the addition of stop buffer containing 10 mM ethylenediamine tetra-acetic acid (EDTA; see Supplementary Material). Samples were read on a Caliper LC3000 (Caliper Life Sciences, Waltham, MA, USA) using an Off-Chip mobility shift assay format to measure percentage conversion of substrate to product, from which half maximal inhibitory concentration (IC50)–response curves were generated.
potent second-generation BTK inhibitor, for the treatment of B-cell
Samantha M. Goodstal, Jing Lin, Timothy Crandall, Lindsey Crowley, Andrew T. Bender,
Albertina Pereira, Maria Soloviev, John S. Wesolowski, Riham Iadevaia,
Sven-Eric Schelhorn, Edith Ross, Federica Morandi, Jianguo Ma, Anderson Clark
Kinase assay buffer components
4 mM dithiothreitol (Sigma, D0632)
100 mM 4-(2-hydroxyethyl)-1-piperazineethanesulfonic acid (HEPES) pH 7.5
0.227% Coating Reagent #3 (Caliper Life Sciences)
TL-89 5 lo g c onc ent rati on (M )
Supplementary Figure S1. Inhibition of recombinant human full-length BTK activity by TL-
895 and resulting IC50. […]

[6] = system: A431 and A549; assay: ADCC induced by anti-PD-L1 or anti-EGFR antibody (51Cr release); assay type: cell-based, human; details: A431 and A549 target cells, PBMC effector cells, 4 h; TL-895 0.05 and 3 µM or 8 nM–25 µM
Method: In a second study, ADCC induced by anti-programmed death-ligand 1 (anti-PD-L1) or anti-EGFR antibody was measured using two cultured human tumor cell lines (A431 and A549, target cells; obtained from ATCC). Target cells were stimulated with human interferon-gamma (200 ng/mL) for 48 h to increase surface expression of PD-L1 target protein. Target cell and effector cells (peripheral blood mononuclear cells) were incubated for 4 h with (a) increasing concentrations of antibody (0.2–1000 ng/mL) and TL-895 (0, 0.05 and 3 µM), or (b) a fixed concentration of antibody (20 ng/mL) and increasing concentrations of TL-895 (8 nM–25 µM). ADCC analysis was based on the quantitation of chromium-51 (^51Cr) release during lysis of target cells using […] detection on a MicroBeta2 2450-0060 liquid scintillation and luminescence counter (PerkinElmer, Waltham, MA, USA).

[7] = molecular target: T3, BMX (Homo sapiens, UniProt P51813); assay: Millipore Kinase Profiler screening panel, BMX; assay type: biochemical
T3 construct: purchased EMD Millipore
T3 sequence (P51813 whole entry): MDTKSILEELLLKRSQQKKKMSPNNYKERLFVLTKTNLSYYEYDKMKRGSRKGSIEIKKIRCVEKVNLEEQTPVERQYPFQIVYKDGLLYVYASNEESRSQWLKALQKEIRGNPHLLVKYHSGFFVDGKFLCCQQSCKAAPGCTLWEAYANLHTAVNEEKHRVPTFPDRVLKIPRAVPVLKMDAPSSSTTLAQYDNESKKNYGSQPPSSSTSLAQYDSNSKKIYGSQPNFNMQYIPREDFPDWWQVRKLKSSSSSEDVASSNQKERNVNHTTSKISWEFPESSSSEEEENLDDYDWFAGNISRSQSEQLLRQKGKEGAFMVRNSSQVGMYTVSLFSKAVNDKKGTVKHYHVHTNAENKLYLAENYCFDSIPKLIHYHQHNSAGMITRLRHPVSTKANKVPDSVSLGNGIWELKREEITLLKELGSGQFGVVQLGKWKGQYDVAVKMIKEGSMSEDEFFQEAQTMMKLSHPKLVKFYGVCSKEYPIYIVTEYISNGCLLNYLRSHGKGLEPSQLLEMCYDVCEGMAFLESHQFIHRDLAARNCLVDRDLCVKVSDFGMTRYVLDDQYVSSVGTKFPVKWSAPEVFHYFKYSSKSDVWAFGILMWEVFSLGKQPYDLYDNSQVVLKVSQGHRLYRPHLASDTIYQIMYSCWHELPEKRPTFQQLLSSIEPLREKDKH
Method: as §1

[8] = system: HBL-1; assay: Cell viability, ATPlite; assay type: cell-based, human
Method: (§2) The potency of TL-895 effects on cell viability was further examined in vitro in a panel of diffuse large B-cell lymphoma (DLBCL) and MCL cell lines, comprising ten germinal B-cell like subtype (GCB)-DLBCL cell lines, six activated B-cell like (ABC)-DLBCL cell lines, and six MCL cell lines (Horizon Discovery Inc, Cambridge MA, USA). Cells were seeded into 384-well plates (500 cells/well) and incubated (37 °C for 24 h) before treatment with varying concentrations of TL-895 for 72 h. ATP levels were analyzed using the ATPlite Luminescence Assay System (Perkin Elmer, UK). Growth inhibition and maximum response were calculated using the Chalice Analyzer (Horizon Discovery Inc).

[9] = system: OCI-Ly3; assay: Cell viability, ATPlite; assay type: cell-based, human
Method: as §2

[10] = system: TMD8; assay: Cell viability, ATPlite; assay type: cell-based, human
Method: as §2

[11] = system: SU-DHL-2-epst; assay: Cell viability, ATPlite; assay type: cell-based, human
Method: as §2

[12] = molecular target: T2, BTK; assay: Millipore Kinase Profiler screening panel, BTK; assay type: biochemical; design: purchased EMD Millipore; details: n = 2
Method: as §1

[13] = molecular target: T2, BTK; assay: BTK phosphorylation in Ramos cells after anti-IgM stimulation (ProteinSimple Wes); assay type: cell-based; design: endogenous in cells; host or cells: Ramos Burkitt's lymphoma cells (ATCC CRL-1596)
[14] = Homo sapiens, HBL1, HBL-1 (ABC-DLBCL), 72 h
[15] = Homo sapiens, TMD8 (ABC-DLBCL), 72 h

Structure (SMILES): CC#CC(=O)N1CCC[C@H]1c1nc(-c2ccc(C(=O)Nc3ccccn3)cc2)c2c(N)nccn12 [Acalabrutinib]
- Tolerability [1]: no significant tolerability issues
- Adverse event: diarrhea [2]: 31%
- Adverse event: fatigue [2]: 27%
- Adverse event: headache [2]: 38%
- Grade ≥ 3 adverse event: anemia [2]: 9%
- Grade ≥ 3 adverse event: neutropenia [2]: 10%
- Grade ≥ 3 adverse event: pneumonia [2]: 5%

Structure (SMILES): C=CC(=O)N1CCC[C@@H](n2nc(-c3ccc(Oc4ccccc4)cc3)c3c(N)ncnc32)C1 [Ibrutinib]
- Exposure [3]: 569 ng·h/mL

Structure (SMILES): C=CC(=O)N1CCC(F)(CNc2ncnc(N)c2-c2ccc(Oc3ccccc3)cc2)CC1 [TL-895]
- IC50 [4]: 0.062 µM
- IC50 [5]: 0.0015 µM
- Effect on ADCC of anti-PD-L1 or anti-EGFR antibodies (concentration–response, maximum cell lysis) [6]: did not affect the concentration–response or maximum cell lysis when combined with anti-PD-L1 or anti-EGFR antibodies, except at the highest concentrations tested
- IC50 [7]: 0.005 µM
- Sensitivity to TL-895 ([8]; HBL-1, mutations in both CD79b and MyD88): sensitive
- GI50 [8, 14]: 0.56 µM
- IC50 [8, 14]: 10.3 µM
- Emax ([8]; Homo sapiens, HBL1, HBL-1 (ABC-DLBCL), 72 h, read-out: Max response (GI %)): 89%
- Emax ([9]; Homo sapiens, OCI-Ly3 (ABC-DLBCL), 72 h, read-out: Max response (GI %)): 39%
- Sensitivity to TL-895 ([9]; OCI-Ly3, MyD88 mutation, CD79 wild-type): unresponsive
- GI50 [10, 15]: 0.01 µM
- IC50 [10, 15]: 0.01 µM
- Emax ([10]; Homo sapiens, TMD8 (ABC-DLBCL), 72 h, read-out: Max response (GI %)): 181%
- Sensitivity to TL-895 ([10]; TMD8, mutations in both CD79b and MyD88): sensitive
- Emax ([11]; Homo sapiens, SU-DHL-2-epst (ABC-DLBCL), 72 h, read-out: Max response (GI %)): 2%
- Sensitivity to TL-895 ([11]; SU-DHL-2-epst, MyD88 mutation, CD79 wild-type): unresponsive
- IC50 [12]: 0.0185 µM
- IC50 ([13]; 30 min pre-treatment, anti-IgM stimulation, read-out: IC50, BTK auto-phosphorylation at Y223): 0.001 to 0.01 µM
- Phosphorylation of Y551 on the activation loop ([13]; up to highest tested concentration 1 µM): not inhibited
